The source of these data is US20100021541A1, “Microparticulate form of a Tetrahydropyridine derivative” (SANOFI-AVENTIS, priority 1996, published 2010).

Data set [1] can be described thus: Preclinical trials: animal pharmacology, toxicology and pharmacokinetic studies. Further details: species or system animals. To be noted: in vivo.
Data set [2] in a line: Clinical trials on healthy volunteers evaluating the effect of food on oral absorption. It is filed as in vivo. To be noted: for required dose relative to the product of Example 5 to obtain the same absorption: absorption = area under the curve of plasma SR 57746 concentrations; for absorption with a meal versus on an empty stomach: oral, area under the curve of plasma SR 57746 concentrations. The source says:
The results obtained in vitro were confirmed in vivo by comparing the observations made in two clinical trials on healthy volunteers, the first trial evaluating the effect of food on the oral absorption of the SR 57746 A obtained according to EP 0 101 381, and the second trial evaluating the effect of food on the oral absorption of the SR 57746 A of Example 5 below. In both the trials, the criterion for evaluation of the absorption was the area under the curve of the plasma SR 57746 concentrations as a function of time.

In a further data set the test system is CACO-2 monolayer. Nature of the data set: CACO-2 monolayer model, in vitro absorption (dissolution and permeability). It is filed as in vitro ADME. To be noted: Hanks' solution supplemented with 10% of fetal calf serum and taurocholic acid. As for the experimental part: A study concerning the determination of the in vitro absorption of the microparticles according to the present invention was carried out using the CACO-2 monolayer model.
On the technique in general: Caco-2 cells form a polarised layer with tight junctions and transporters.

Data set [3] concerns amyotrophic lateral sclerosis. Particulars: 2 mg/day; cited from earlier work.
Data set [4] can be described thus: Phase I clinical trials on healthy volunteers, oral administration. It is filed as in vivo. To be noted: administered orally. An excerpt:
EP 0 101 381 describes SR 57746 in the form of the hydrochloride, hereafter called SR 57746 A, and this salt was used in preclinical and clinical trials on healthy volunteers (Phase I). According to said document, SR 57746 is isolated by crystallization from ethanol, especially absolute ethanol.

As for `FC(F)(F)c1cccc(C2=CCN(CCc3ccc4ccccc4c3)CC2)c1` [SR 57746, 1-[2-(2-Naphthyl)ethyl]-4-(3-trifluoromethylphenyl)-1,2,3,6-tetrahydropyridine], in data set [1], the “activity and behavior in animal pharmacology and toxicology tests” value is “constant activity and behavior”; the “pharmacokinetic studies on animals” value was “constant and reproducible results”.

Take `Cl.FC(F)(F)c1cccc(C2=CCN(CCc3ccc4ccccc4c3)CC2)c1` [1-[2-(2-naphthyl)ethyl]-4-(3-trifluoromethylphenyl)-1,2,3,6-tetrahydropyridine hydrochloride]: the “required dose relative to the product of Example 5 to obtain the same absorption” value in data set [2] (administered on an empty stomach) is recorded as “about nine times greater”; in data set [2] (administered with a meal), “three to four times greater”. Moreover, the “absorption with a meal versus on an empty stomach” value in data set [2] (hydrochloride) is “two to three times greater”.

For `Cl.FC(F)(F)c1cccc(C2=CCN(CCc3ccc4ccccc4c3)CC2)c1` [Example 5], in the data set on CACO-2 monolayer, the dissolution and permeability entry is “rendered uniform”. Besides, the “absorption with a meal versus on an empty stomach” value in data set [2] is recorded as “the absorption is the same”.

As for `Cl.FC(F)(F)c1cccc(C2=CCN(CCc3ccc4ccccc4c3)CC2)c1` [SR 57746 A, 1-[2-(2-naphthyl)ethyl]-4-(3-trifluoromethylphenyl)-1,2,3,6-tetrahydropyridine hydrochloride], the “clinical outcome in amyotrophic lateral sclerosis” value in data set [3] was “proved promising”. Further, in data set [4], the “variability in the plasma concentrations and the pharmacodynamic effects” value is reported as “high variability”.
